Assay results as given in PubChem BioAssay AID1918943 (Molecular Pharmacology Branch, DTP, NCI, 2023).

Test system: 855422-203-R-J1-PDC complex spheroid viability
Test: Anticancer human tumor 855422-203-R-J1-PDC patient-derived bladder carcinoma cell line growth inhibition
Conditions: for IC50: curve of first compound; for viability, T/C: stronger effect = lower value
Procedure, shortened: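 Complex spheroids of tumor cells with HUVEC and human MSCs, exposed to iadademstat combined with other agents. Each agent tested in half-log steps from near clinical Cmax (else 10 microM top), DMSO ≤0.25%.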

[1] = second compound 0.1 µM, first compound 0.00949 µM
[2] = second compound 0.1 µM, first compound 0.03 µM
[3] = second compound 0.1 µM, first compound 0.0949 µM
[4] = second compound 0.1 µM, first compound 0.3 µM
[5] = second compound 0.1 µM, first compound 0.949 µM
[6] = second compound 0.1 µM, first compound 3 µM
[7] = second compound 0.316 µM, first compound 0.00949 µM
[8] = second compound 0.316 µM, first compound 0.03 µM
[9] = second compound 0.316 µM, first compound 0.0949 µM
[10] = second compound 0.316 µM, first compound 0.3 µM
[11] = second compound 0.316 µM, first compound 0.949 µM
[12] = second compound 0.316 µM, first compound 3 µM
[13] = second compound 1 µM, first compound 0.00949 µM
[14] = second compound 1 µM, first compound 0.03 µM
[15] = second compound 1 µM, first compound 0.0949 µM
[16] = second compound 1 µM, first compound 0.3 µM
[17] = second compound 1 µM, first compound 0.949 µM
[18] = second compound 1 µM, first compound 3 µM
[19] = second compound 3.16 µM, first compound 0.00949 µM
[20] = second compound 3.16 µM, first compound 0.03 µM
[21] = second compound 3.16 µM, first compound 0.0949 µM
[22] = second compound 3.16 µM, first compound 0.3 µM
[23] = second compound 3.16 µM, first compound 0.949 µM
[24] = second compound 3.16 µM, first compound 3 µM
[25] = second compound 10 µM, first compound 0.00949 µM
[26] = second compound 10 µM, first compound 0.03 µM
[27] = second compound 10 µM, first compound 0.0949 µM
[28] = second compound 10 µM, first compound 0.3 µM
[29] = second compound 10 µM, first compound 0.949 µM
[30] = second compound 10 µM, first compound 3 µM
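Further: drug exposure lasted 7 days starting on day 3 after seeding.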
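Wherever viability, T/C is given: luminescence viability as percent of DMSO vehicle wells = 100%.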

Structure (SMILES): Cn1ncnc1C1c2n[nH]c(=O)c3cc(F)cc(c23)NC1c1ccc(F)cc1 (stereo not given) + NC1CCC(NC2CC2c2ccccc2)CC1
- IC50 (second compound 0.1 µM): > 100 nM
- IC50 (second compound 0.316 µM): > 100 nM
- IC50 (second compound 1 µM): > 100 nM
- IC50 (second compound 3.16 µM): > 100 nM
- IC50 (second compound 10 µM): > 100 nM
- viability, T/C (second compound 0.1 µM, first compound 0.000316 µM): 104%
- viability, T/C (second compound 0.1 µM, first compound 0.001 µM): 94.4%
- viability, T/C (second compound 0.1 µM, first compound 0.00316 µM): 97.1%
- viability, T/C (second compound 0.1 µM, first compound 0.01 µM): 86.5%
- viability, T/C (second compound 0.1 µM, first compound 0.0316 µM): 78%
- viability, T/C (second compound 0.1 µM, first compound 0.1 µM): 77.5%
- viability, T/C (second compound 0.316 µM, first compound 0.000316 µM): 90%
- viability, T/C (second compound 0.316 µM, first compound 0.001 µM): 92.4%
- viability, T/C (second compound 0.316 µM, first compound 0.00316 µM): 84.3%
- viability, T/C (second compound 0.316 µM, first compound 0.01 µM): 83.9%
- viability, T/C (second compound 0.316 µM, first compound 0.0316 µM): 90.7%
- viability, T/C (second compound 0.316 µM, first compound 0.1 µM): 82.3%
- viability, T/C (second compound 1 µM, first compound 0.000316 µM): 88%
- viability, T/C (second compound 1 µM, first compound 0.001 µM): 86.1%
- viability, T/C (second compound 1 µM, first compound 0.00316 µM): 109%
- viability, T/C (second compound 1 µM, first compound 0.01 µM): 86.2%
- viability, T/C (second compound 1 µM, first compound 0.0316 µM): 92.9%
- viability, T/C (second compound 1 µM, first compound 0.1 µM): 81.3%
- viability, T/C (second compound 3.16 µM, first compound 0.000316 µM): 89.4%
- viability, T/C (second compound 3.16 µM, first compound 0.001 µM): 97%
- viability, T/C (second compound 3.16 µM, first compound 0.00316 µM): 109%
- viability, T/C (second compound 3.16 µM, first compound 0.01 µM): 78.2%
- viability, T/C (second compound 3.16 µM, first compound 0.0316 µM): 77.4%
- viability, T/C (second compound 3.16 µM, first compound 0.1 µM): 74.8%
- viability, T/C (second compound 10 µM, first compound 0.000316 µM): 82.7%
- viability, T/C (second compound 10 µM, first compound 0.001 µM): 78.5%
- viability, T/C (second compound 10 µM, first compound 0.00316 µM): 101%
- viability, T/C (second compound 10 µM, first compound 0.01 µM): 70.6%
- viability, T/C (second compound 10 µM, first compound 0.0316 µM): 74.6%
- viability, T/C (second compound 10 µM, first compound 0.1 µM): 69.1%

Structure (SMILES): NS(=O)(=O)OCC1CC(n2ccc3c(NC4CCc5ccccc54)ncnc32)CC1O (stereo not given) + NC1CCC(NC2CC2c2ccccc2)CC1
- IC50 (second compound 0.1 µM): 708 nM
- IC50 (second compound 0.316 µM): 765 nM
- IC50 (second compound 1 µM): 747 nM
- IC50 (second compound 3.16 µM): 593 nM
- IC50 (second compound 10 µM): 469 nM
- viability, T/C [1]: 102%
- viability, T/C [2]: 102%
- viability, T/C [3]: 102%
- viability, T/C [4]: 88.6%
- viability, T/C [5]: 36.9%
- viability, T/C [6]: 14.8%
- viability, T/C [7]: 100%
- viability, T/C [8]: 98.6%
- viability, T/C [9]: 76.6%
- viability, T/C [10]: 87.4%
- viability, T/C [11]: 41.5%
- viability, T/C [12]: 13.9%
- viability, T/C [13]: 105%
- viability, T/C [14]: 108%
- viability, T/C [15]: 79.9%
- viability, T/C [16]: 83%
- viability, T/C [17]: 38.9%
- viability, T/C [18]: 17.4%
- viability, T/C [19]: 95.3%
- viability, T/C [20]: 90%
- viability, T/C [21]: 80%
- viability, T/C [22]: 74.5%
- viability, T/C [23]: 34.1%
- viability, T/C [24]: 9.44%
- viability, T/C [25]: 86.9%
- viability, T/C [26]: 95.7%
- viability, T/C [27]: 70.9%
- viability, T/C [28]: 69.9%
- viability, T/C [29]: 23.8%
- viability, T/C [30]: 10.1%

Structure (SMILES): O=C(C=Cc1cccc(S(=O)(=O)Nc2ccccc2)c1)NO + NC1CCC(NC2CC2c2ccccc2)CC1
- IC50 (second compound 0.1 µM): 452 nM
- IC50 (second compound 0.316 µM): 468 nM
- IC50 (second compound 1 µM): 296 nM
- IC50 (second compound 3.16 µM): 343 nM
- IC50 (second compound 10 µM): 357 nM
- viability, T/C [1]: 88.3%
- viability, T/C [2]: 88.7%
- viability, T/C [3]: 91.3%
- viability, T/C [4]: 68.9%
- viability, T/C [5]: 15.2%
- viability, T/C [6]: 0.2%
- viability, T/C [7]: 96.1%
- viability, T/C [8]: 88.6%
- viability, T/C [9]: 80.7%
- viability, T/C [10]: 71.8%
- viability, T/C [11]: 17.4%
- viability, T/C [12]: 0.2%
- viability, T/C [13]: 98%
- viability, T/C [14]: 90.1%
- viability, T/C [15]: 67.7%
- viability, T/C [16]: 59.2%
- viability, T/C [17]: 13.4%
- viability, T/C [18]: 0.17%
- viability, T/C [19]: 94%
- viability, T/C [20]: 92%
- viability, T/C [21]: 81.6%
- viability, T/C [22]: 57.4%
- viability, T/C [23]: 7.23%
- viability, T/C [24]: 0.14%
- viability, T/C [25]: 90.8%
- viability, T/C [26]: 82.7%
- viability, T/C [27]: 78.9%
- viability, T/C [28]: 58.5%
- viability, T/C [29]: 5.21%
- viability, T/C [30]: 0.59%
